Data: a melting point compilation (Tetko et al.; mined from patent text by program, amines drawn as free bases though some values may be those of a salt)

| SMILES | melting point |
| --- | --- |
| CCCC1=NC(=NOC(=O)NC)SC1(C)CC (configuration not stated) | 124 to 126 °C |
| Cc1ccc2c(O)c(-c3cccc(Oc4ccccc4)c3)c(=O)[nH]c2c1 | 299 to 300 °C |
| CCOC(=O)c1cc(CC)sc1Nc1cc(C)ccc1[N+](=O)[O-] | 55 to 57 °C |
| Ic1cccc2c(SSc3cccc4c(I)cccc34)cccc12 | 202 to 203 °C |
| NC(=O)c1csc(Cl)c1 | 138 to 139 °C |
| O=C(COc1ccc(CCNS(=O)(=O)c2ccccc2)cc1)Nc1ccccc1 | 123 °C |
| CN1CCCN(C(=O)c2ccc3n2Cc2ccccc2N(C(=O)c2ccc(C4CCCCC4)cc2)C3)CC1 | 133 to 136 °C |
| N#CC1(N2CCN(c3ccc(N4CC(CCC(N)=O)OC4=O)cc3F)CC2)CCOCC1 (configuration not stated) | 134 to 137 °C |
| CN1CC(O)=C(C(=O)Nc2ccccn2)N(C)S1(=O)=O | 185 °C |
| COc1cc(-c2cccs2)ccc1C(=O)C=Cc1ccc(F)c(F)c1 | 73 to 79 °C |
| CSCCC(=N)Nc1cn(-c2cccnc2)nc1Cl | 137 °C |
| CC1CCC(C(C)C)C(OC(=O)N[C@@]2(C)CCC(=O)NC2=O)C1 (some centres not stated) | 170 to 172 °C |
| NCCCOc1ccc(-c2ncc3c(=O)[nH][nH]c(=O)c3c2O)cc1 | > 300 °C |
| O[C@@H]1CN(CC2CC2)CC[C@@H]1c1ccccc1 (relative stereo) | 94 to 97 °C |
| CC(NC(=S)NCC(COC(=O)C(C)(C)C)Cc1ccc(C(C)(C)C)cc1)c1ccc(NS(C)(=O)=O)c(F)c1 (configuration not stated) | 78 °C |
| CC(=O)c1ccc(CCN2CCN(c3ccc(Cl)cc3)CC2)cc1 | 141 to 143 °C |
| CCCCCOc1ccc(C#N)cc1-c1cc(C(=N)Nc2cccc(C(F)(F)F)c2)ccc1OCCCCC | 74 to 75 °C |
| COc1cc(Br)c(OC(=O)c2ccc(OC)c(C(F)(F)F)c2)c(NC(=O)c2ccc(OC)c(C(F)(F)F)c2)c1 | 205 to 208 °C |
| CN1CC=C(c2cnn3c(-c4cccc(NC(=O)c5cccc(C(F)(F)F)c5)c4)ccnc23)CC1 | 163 to 165 °C |
| COc1cc2onc(-c3ccccc3F)c2cc1Cl | 165 to 166 °C |

| SMILES | melting point |
| --- | --- |
| O=C(CS)Nc1ccc(C(=O)NCCO)cc1 | 184 to 186 °C |
| O=C(c1ccc(-c2ccn(C(=O)Cc3ccc(Cl)cc3Cl)n2)cc1)N1Cc2cccn2Cc2ccccc21 | 130 to 140 °C |
| COc1ccc2[nH]c3c(C)c4ccnc(NC5CC(C)(C)NC(C)(C)C5)c4cc3c2c1 | 223 to 225 °C |
| COc1cccc(OC)c1-c1nc2c(N[C@H]3[C@@H](C(N)=O)[C@@H]4C=C[C@H]3C4)c(Br)cnc2[nH]1 | 194 to 197 °C |
| c1cc2c(cc1CCSSCCc1ccc3c(c1)OCO3)OCO2 | 76 to 78 °C |
| CNc1nnc(-c2cc3c(Oc4ccc(Cl)cc4)cncc3s2)s1 | 226 to 229 °C |
| Cc1nccn1Cc1ccc(N)cc1C(F)(F)F | 146 to 147 °C |
| Cc1nc2ccsc2c(=O)n1-c1ccccc1Cl | 118 to 121 °C |
| CC(C)n1nc(-c2sc(C(=O)NC3CC3)nc2-c2ccccc2F)ccc1=O | 134 to 135 °C |
| CC(C)CCOC(=O)c1cccc(-c2cn(C)cc(-n3cccn3)c2=O)c1 | 115 to 118 °C |
| COc1ccc2nc(-c3c[nH]c4ccccc34)[nH]c(=O)c2c1 | 311 to 312 °C |
| Cc1nnc2n1-c1ccc(C#CCN3C(=O)CCc4ccccc43)cc1C(c1ccccc1F)=NC2 | 236 to 239 °C |
| CC(C(=O)NCCN(C)C)n1cc(-c2ccc(Oc3ccccc3)cc2)c2c(N)ncnc21 (configuration not stated) | 163 to 164 °C |
| CC(C)Nc1cccnc1N1CCN(C(=O)c2ccc(C(=O)O)cc2)CC1 | 215 to 217 °C |
| O=C(Nc1nc(-c2ccco2)c(C(=O)C2CCOCC2)s1)c1ccccc1OC(F)(F)F | 131 to 134 °C |
| COC1([N+](=O)[O-])C=CC(C=Cc2ccccc2)=CC1 (configuration not stated) | 131 to 132 °C |
| OCC1OC(n2cnc3c(Cl)cc(Cl)nc32)C(O)C1O (configuration not stated) | 148 to 150 °C |
| Cc1nc2ccc3c(c2o1)C(CCNC(=O)c1ccccc1)CC3 (configuration not stated) | 73 to 76 °C |
| O=C(O)CCc1oc(Sc2nncn2-c2ccccc2)nc1-c1ccc(Cl)cc1 | 122 to 123 °C |

Next, values leading:

| melting point | SMILES |
| --- | --- |
| 163 to 164 °C | CC(Oc1ccc(C#N)cc1)c1ccnc2ncnn12 (configuration not stated) |
| 105 to 108 °C | Cc1ccc(CN2Cc3cncn3CC2=O)cc1 |
| 186 °C | COc1ccc(CCNc2nc(Cl)nc(NCCc3ccc(OC)c(OC)c3)n2)cc1OC |
| 204 to 205 °C | CSc1ccc(-n2c(-c3ccccc3)nc(SC)c(C#N)c2=O)cc1 |
| 72.5 to 73.5 °C | COc1cccnc1CO |
| 152 °C | CCCCOc1ccc(-c2ccc(C)c(C#N)c2C#N)cc1 |
| > 300 °C | Cc1ccc(C2C3=C(CC(C)(C)CC3=O)NC3=C2C(=O)CC(C)(C)C3)cc1C |
| 95 to 96 °C | CC1(C)CC(=O)Oc2ccc(O)cc21 |
| 189 °C | O=C(O)CCc1cc2cc(Cl)ccc2n1S(=O)(=O)c1ccccn1 |
| 191 to 192 °C | [N-]=[N+]=Nc1nc(N)c2ncn(COCCO)c2n1 |
| 140 °C | c1ccc(-c2ccc(CCNc3ccncc3)cc2)cc1 |
| 97 to 99 °C | CCOC(=O)COc1ccccc1C(=O)Nc1ccc(Sc2ccccc2-c2nnn[nH]2)cc1 |
| 116 to 117 °C | CCCS(=O)(=O)c1nc[nH]n1 |
| 104 to 110 °C | O=C(c1ccccc1)c1cc2c(cc1O)C(CO)(C(=O)O)CC2 (configuration not stated) |
| 82.5 to 84 °C | Cc1cccc(-c2nsc(=O)o2)c1 |
| 199 °C | CC(C)(C)OC(=O)Cn1ccc2cc(NC(=O)CC34CC5CC(CC(C5)C3)C4)ccc21 |
| 64 to 66 °C | COc1cc(C(=O)N2CCC(CCOS(C)(=O)=O)(c3ccc(Cl)c(Cl)c3)C2)cc(OC)c1OC (configuration not stated) |
| 254 to 256 °C | O=C(CCc1cnn(-c2ccccc2)c1-c1ccccc1)Nc1ccc(C(=O)O)cc1 |
| 75 to 90 °C | CCCCc1nc2c(c(C)c(C)n3nnnc23)n1CC(C)(C)NS(C)(=O)=O |
| 130 to 132 °C | CCC(OCC(F)F)c1ccc(Cl)c2nc3n(c12)CCCN3c1ccc(OC)nc1C (configuration not stated) |

| melting point | SMILES |
| --- | --- |
| 213 to 216 °C | O=C(O)c1cc2cc(Cl)ccc2nc1N[C@@H](CO)Cc1ccccc1 |
| 140 to 145 °C | CCc1cc(C(=O)c2ccccc2Cl)c(-n2c(C)nnc2CNC(=O)c2c[nH]c3ccccc23)s1 |
| 128 to 130 °C | Fc1cccc(F)c1-c1nn(-c2ccccc2C(F)(F)F)c(=S)o1 |
| 108 to 109 °C | COCCNC(=S)n1nc(Oc2ncc(C(F)(F)F)cc2Cl)cc1C |
| 138 to 139 °C | CC(O)/C=C/c1ccc(-c2ccccc2)cc1 (configuration not stated) |
| 233 to 235 °C | COC(=O)c1cc(OC)c(CCNC(C)=O)c(OC)c1 |
| 133 to 135 °C | CCCCOP(=O)(Cc1cc(C(C)(C)C)c(O)c(C(C)(C)C)c1)Cc1cc(C(C)(C)C)c(O)c(C(C)(C)C)c1 |
| 164 to 168 °C | CC(C)(C)CC(C)(C)Nc1nc(N2CC3CCC(CC3)C2)nc(C(C)(C)C)n1 |
| 74 to 75 °C | Cc1cc([N+](=O)[O-])c(OCc2ccccc2)c(Cl)c1C |
| 169 to 171 °C | CC(C(=O)O)c1ccc2cc(OCc3nc4ccccc4s3)ccc2c1 (configuration not stated) |
| 158 to 160 °C | Cc1c(N2C[C@H]3CCOC[C@@]3(N)C2)c(F)cc2c(=O)c(C(=O)O)cn([C@@H]3C[C@@H]3F)c12 |
| 214 to 219 °C | Nc1ccc(C(=O)O)cc1S(N)(=O)=O |
| 93 to 95 °C | COc1ccc(S(=O)(=O)C2SC(=O)NC2=O)cc1 (configuration not stated) |
| 220 to 222 °C | O=C1OCCC12Sc1ccc(S(=O)(=O)N3CCOCC3)cc1C2=O (configuration not stated) |
| 219 to 221 °C | Clc1c(CBr)ccc2c(Cl)c(CBr)ccc12 |
| 138 to 140 °C | CCOC(=O)C(=CNc1cc(=O)c2ccccc2o1)C(=O)OCC |
| 141 to 143 °C | Nc1ccc(CS(=O)(=O)NC2CCCCC2)cc1 |
| 84 to 87 °C | C=C(C)n1c(C)c(-c2ccc(F)cc2)c2cccnc21 |
| 62 to 64 °C | O=C(COc1cccc(Cl)c1)NCCO[N+](=O)[O-] |
| 150 to 152 °C | COC(=O)C(NC(=O)c1ccccc1)c1ccc(-c2ccc(S)cc2)cc1 (configuration not stated) |

| melting point | SMILES |
| --- | --- |
| 118 to 119 °C | CC(=O)C(C)(C)N1COC(C)=C(c2ccccc2)C1=O |
| 145 to 146 °C | COc1ccc(NS(=O)(=O)c2cc(OC)c(OC)c(OC)c2)cc1O |
| 98 to 99 °C | CSc1ccc(NC(C#N)c2ccc(OC(F)F)cc2)cc1 (configuration not stated) |
| 112 to 113 °C | O=C(COc1ccc(OCc2ccccc2)cc1)NCCCn1ccnc1 |
| 178 °C | N=C(Nc1ccc2ccncc2c1)c1cccs1 |
| 165 to 166 °C | C=Cc1ccc(-c2nc(C)c3c(n2)sc2c(OCC)nc(N4CCNCC4)nc23)cc1 |
| 191 to 193 °C | COc1ccc(O)c(C(=O)Nc2ccccc2C(=O)NCCCC(=O)O)c1 |
| 188 to 190 °C | O=C(O)C=C1CCC(n2nc(-c3c(-c4ccccc4)nn4ccccc34)ccc2=O)CC1 (configuration not stated) |
| 174 °C | CC(Cc1c[nH]c2ccccc12)(NC(=O)OC1C2CC3CC(C2)CC1C3)C(=O)NC1(CC(=O)O)CCCCC1 (configuration not stated) |
| 128 to 131 °C | CN(C)c1ccc(NC(=O)N(C[C@H]2CC[C@H](CN(C(=O)Nc3ccc(N(C)C)cc3)C3CCCCC3)CC2)C2CCCCC2)cc1 |
| 191 to 192 °C | O=C(CBr)Nc1ccc(F)cc1C(=O)O |
| 169 to 171 °C | Cc1ccccc1-c1ccc(C(=O)N2Cc3ccc(C(=O)NCCc4ccc(Cl)cc4)n3Cc3ccccc32)cc1C |
| 235 to 236 °C | Cc1cc(-c2nc3c(C)cc(Cl)nn3c2-c2ccnc(NC(=O)c3ccc(F)cc3)c2)ccc1F |
| 240 to 241 °C | COc1ccc(C2=NN(C3CCN(C(=O)CN4C(=O)CCC4=O)CC3)C(=O)C(C)(C)C2)c2c1OC(C)(C)C2 |
| 81 to 82 °C | CCCCCCCCCCN(O)C(=O)NCCCCCCC(=O)OC |
| 146 to 148 °C | CCOCc1nc2c(N)nc3ccccc3c2n1CCCC(C)N(OC)S(C)(=O)=O (configuration not stated) |
| 178 to 182 °C | CC(C)OC(=O)N1CCC(c2nc3cc(-c4ccc(C(N)=O)cc4Cl)ccc3o2)CC1 |
| 97 to 99 °C | CC(C)(C)c1cc(-c2ccc(F)cc2)cc(C(C)(C)C)c1O |
